Reference: a melting point compilation (Tetko et al.; mined from patent text by program, amines drawn as free bases though some values may be those of a salt)

SMILES	melting point
COc1cc(C(=O)C#CC(=O)OCC=C(C)C)cc(OC)c1OC	52 to 53 °C
COc1nc(NC(=O)NS(=O)(=O)c2ccccc2OC(F)F)nc(OCC(F)(F)F)n1	155 to 157 °C
N#CCOC(=O)c1cc2ccccc2o1	74 to 76 °C
CCc1[nH]n(C2CCCC2)c2nc(-c3ccccc3OCCCN3CCOCC3)nc(=O)c1-2	220 to 221 °C
N=C(NCCCCC1CCN(CC(O)CO)CC1)NC(=O)c1nc(Cl)c(N)nc1N (configuration not stated)	188 to 191 °C
CCOC(=O)c1[nH]c(CC)c(CC)c1CC	47 to 49 °C
CC1(C)CCc2c(N3CCCC3)nc3sc4c(NCC(=O)NCC5CCCO5)ncnc4c3c2C1 (configuration not stated)	210 to 211 °C
O=C(COc1ccc(CCNS(=O)(=O)c2ccccc2)cc1)Nc1ccccc1	123 °C
CCCCCCCc1ccc(C(=O)Cc2cccc(C#N)c2)cc1	68 °C
CC(C)(C)OC(=O)N1CCC(CCc2c3c(nn2C(C)(C)C)c(=O)[nH]c2ccccc23)CC1	223 to 225 °C
CCOC(=O)c1ncc2c(c1CBr)c1ccccc1n2C(C)=O	188 to 189 °C
CCN(CC)c1c([N+](=O)[O-])cc(C(F)(F)F)c(N2CCCC2=O)c1[N+](=O)[O-]	94 to 95 °C
O=C(NCC12CC3CC(CC(C3)C1)C2)c1cc(-c2ncccc2OCc2nnn[nH]2)ccc1Cl	122 to 126 °C
O=c1c2c[nH]c3c(c-2nn1-c1ccc(Cl)cc1)COCC3	335 to 337 °C
COc1cc(CCCCCCCCCCCO)ccc1O	72 to 74 °C
c1ccc(-c2csc(-c3cccs3)n2)cc1	51 to 53 °C
Cc1ccccc1-c1cc(N2CCS(=O)(=O)CC2)ncc1N(C)C(=O)C(C)(C)c1cc(C(F)(F)F)cc(C(F)(F)F)c1	200 to 201 °C
CC(C)(C)c1nc2cc(N3CCN(S(C)(=O)=O)CC3)c(N=C=S)cc2s1	128 to 130 °C
CC(=O)N(C)C(Cc1ccccc1N)c1ccc(C)s1 (configuration not stated)	144 to 145 °C
COc1ccc2c(=O)c(C(N)=O)c(N)oc2c1	265 to 266 °C
COC(=O)OC(Cc1ccc(OCCc2nc(-c3ccccc3)oc2C)cc1)C(N)=O (configuration not stated)	171 to 174 °C
O=C1CCCCCCCCCCC=CCCCCCCCCCCC1O (configuration not stated)	78 °C
CC(C)S(=O)(=O)n1cc(-c2ccc(Oc3ccccc3)cc2)c2c(N)ncnc21	162 °C
O=C1c2c(Cl)cccc2-n2cnc(-c3nc(CN(CC4CC4)CC4CC4)no3)c2[C@@H]2CCN12	155 to 160 °C
COCc1cc(-c2ncc(C(F)(F)F)cc2Cl)ccc1Cl	52 to 54 °C

SMILES	melting point
Oc1ccc(Cn2c(S)nc3ccccc32)cc1	216 to 220 °C
Cc1cccc(C)c1OP(=O)(c1ccccc1)c1cc(O)ccc1O (configuration not stated)	172 °C
Cn1c(C(F)(F)F)cc(=O)n(C)c1=O	85 to 87 °C
O=C(NCC(=O)N1CCCC1)c1ccc(-c2ccc3nnn(Cc4ccc5ncccc5c4)c3n2)cc1F	175 to 177 °C
OCc1ccc2cc(O)ccc2c1	179 to 181 °C
CS(=O)c1cc(OCC(O)CNC2CCN(c3ccc(NS(=O)(=O)c4ccc(Br)cc4)cn3)CC2)ccc1O (configuration not stated)	147 °C
Cc1nc(N)nc(N)c1C#CCc1ccccc1	145 to 149 °C
NNC(=O)C(O)c1cc(F)cc(F)c1 (configuration not stated)	119 °C
O=C1Cc2cc(CCN3CCN(c4nsc5ccccc45)CC3)ccc2N1	288 °C
CCCCCCCCCCCCSC1C(=O)N(c2c(Cl)cc(Cl)cc2Cl)N=C1Nc1cc(OC)c(Cl)cc1Cl (configuration not stated)	100 to 102 °C
CCCCCCCCCCCCCCCCC(C)C(=S)OC (configuration not stated)	39 to 40 °C
COC(=O)c1ccccc1S(=O)(=O)NC(=O)Nc1nnc(SC)n(C)c1=O	186 to 187 °C
CCCc1nn(C)c2c(=O)n(CCCOc3ccc(OC(C)(C)C(=O)O)cc3)cnc12	136 to 138 °C
c1ccc(Cc2ncc(-c3cnc(-c4ccccc4)nc3)[nH]2)cc1	235 °C
CCCCCCCCCCCCCCOc1ccc(C(=O)Nc2cccc(CBr)c2)cc1	116 to 118 °C
COc1cc2ccc(-c3cc(C(=O)O)cs3)cc2cc1C12CC3CC(CC(C3)C1)C2	314 to 316 °C
COCN1C(C)=C(C(=O)OC)C(c2ccccc2)C(C(=O)OCOC(=O)C(C)(C)C)=C1C (single isomer, unassigned; (+))	80 to 81 °C
CON=C(C(=O)OC)c1ccccc1Oc1ccccc1	109 to 110 °C
CN(Cc1ccc(CCn2cnc3cc(-c4ccc(Cl)cc4)sc3c2=O)cc1)S(C)(=O)=O	230 to 232 °C
N#Cc1ccc(N2CCC(O)C2)c2ccccc12 (configuration not stated)	138 to 139 °C
Cc1cc(F)ccc1-c1nc(OCCNC(=O)OC(C)(C)C)nc2c1ccc(=O)n2-c1c(F)cccc1F	103 to 105 °C
COc1ccc(-c2c(C(=O)c3ccccc3)c(CSc3nccn3C)nc3cc(OC)c(OC)cc23)cc1OC	185 to 186 °C
O=C(Cn1nnc2ccccc21)Nc1ccc(-n2nc(C(F)(F)F)c(Cl)c2C2CC2)nc1	182 to 189 °C
Cc1nn(-c2ccccn2)c2[nH]c3ccc(C(F)(F)F)cc3c(=O)c12	250 to 251 °C
CCC(=O)c1ncn2c1CN(C)C(=O)c1ccccc1-2	215 to 216 °C

SMILES	melting point
COc1cc(NC(=O)CCCCCN2CCCN(C)CC2)c2nccc(C)c2c1	74 to 77 °C
CCC(O)CNC(=O)c1n[nH]cc1NC(=O)c1ccccn1 (configuration not stated)	202 to 203 °C
CC1(C)CCC(C)(C)c2cc(-c3cc(-c4ccc(C(=O)O)nc4)ccc3-c3ccccc3)ccc21	160 to 162 °C
Cc1cc(C)c(S(=O)(=O)OCCCCOS(=O)(=O)c2c(C)cc(C)cc2C)c(C)c1	109 °C
COc1cc2c(cc1O)CCN(Cc1cccnc1)C2	165 to 166 °C
NC1(C2CCCC2)NC=Nc2[nH]cc(-c3cccc(Oc4ccccc4)c3)c21 (configuration not stated)	128 °C
CCCCCCCCCCCC(=O)c1ccc(/C=C/C(=O)OCC)o1	50 to 51 °C
C/C(Cl)=C/CC(C(=O)O)C(=O)O	95 to 97 °C
Cc1nc(N2CCN(Cc3ccc(C(F)(F)F)cc3)C2=O)sc1C(=O)O	195 to 197 °C
CC(=O)OCCOCn1ccc2c(Cl)ncnc21	67 to 88 °C
CS(=O)(=O)c1ccc(-c2sc(COc3ccc(Cl)cc3)nc2-c2ccc(F)cc2)cc1	140 to 143 °C
COC(=O)c1nc(-c2ccccc2)c(-c2ccc(=O)n(C(C)C)n2)cc1C#N	136 to 138 °C
O=C(NCc1ccccn1)Nc1cc(N2CC(c3ccc(F)cc3)CC2=O)ccn1 (configuration not stated)	153 to 155 °C
CCOC(=O)C(C)(C)OCc1oc(-c2ccc(Cl)cc2)nc1C	75 to 76 °C
Nc1snc2nc(N3CCCC3)sc12	262 to 264 °C
CN1Cc2c(-c3nc(CCl)co3)ncn2-c2cccc(Cl)c2C1=O	249 to 251 °C
CC(=O)/C=C(\C)c1ccc(C2CCCCC2)c(Br)c1	52 to 53 °C
CN(C)C(=O)C1=C(C(=O)Nc2cc(OC3CCCC3)c(Cl)cc2F)CCCC1	136 to 138 °C
COCCNc1nc(-n2ccnc2)nc2ccc(CO)cc12	165 to 168 °C
CC1(Cl)CSC2C(NC(=O)Cc3ccccc3)C(=O)N2C1C(=O)OCc1ccc([N+](=O)[O-])cc1 (configuration not stated)	134 to 136 °C
O=C1C(Cc2ncccc2Br)c2ccccc2C12COc1cc3c(cc12)OCCO3 (configuration not stated)	217 to 218 °C
O=c1c2c(Cc3cccc(OC(F)(F)F)c3)n[nH]c2c2cccnc2n1-c1ccccc1	253 to 254 °C
CC(C)C1COC(=O)N1C(=O)CCCCOCc1ccccc1 (configuration not stated)	133 °C
COc1ccc(Cn2nnnc2C(=O)Nc2cc(C#N)cc(NC(=O)c3nnnn3Cc3ccc(OC)cc3)c2Cl)cc1	223 to 225 °C
OC(CN1CCN(Cc2ccc(F)cc2)CC1)Cn1c2ccccc2c2cc(-c3ccccc3)ccc21 (configuration not stated)	188 °C

SMILES	melting point
CCOC(=O)c1ccc(N2CCC(NC[C@H](O)COc3ccc(O)c(S(C)(=O)=O)c3)CC2)cc1	83 to 85 °C
COc1ccc(S(=O)(=O)N2C(=O)C(c3ccccc3OC)(N3CCC[C@H]3C(=O)N3CCC3)c3cc(Cl)ccc32)c(OC)c1 (some centres not stated)	161 to 166 °C
NOCC=Cc1ccc(Br)cc1	35 to 38 °C
O=NCNC1=Nc2ccsc2C(c2ccccc2)=NC1	156 to 159 °C
COc1ccc(Cl)cc1C(=O)c1cc(C(F)(F)F)ccc1NC(=O)OC(C)(C)C	148 to 150 °C
CCCCCC(COc1ccc(C(=O)O)cc1)c1ccc2c(c1)SCCC2(C)C (configuration not stated)	123 to 124 °C
O=C1CCCN1Nc1ccncc1	177 to 180 °C
O=C1CC(=O)OC(CCc2ccccc2)(C2CCCC2)C1 (configuration not stated)	96 to 99 °C
Cc1ccc(-c2ccc(Cl)cc2)cc1C#CC(C)(C)OCC(=O)O	125 °C
COc1cc(C(C)=O)ccc1OCCN1CCC(c2noc3cc(F)ccc23)CC1	132 to 134 °C
O=C(N[C@H]1CC[C@H](CCN2CCC(c3cccc4c3CCO4)CC2)CC1)C1CCC1	197 °C
CCCC(=O)OC[C@H]1O[C@@H](n2ccc(OCC)nc2=O)CS1 (relative stereo)	59 to 61 °C
CNc1c(SC(F)(F)F)c(C#N)nn1-c1c(Cl)cc(C(F)(F)F)cc1Cl	208 to 210 °C
Nc1cc(C(=O)O)cc(S(N)(=O)=O)c1NCc1ccccc1	218 to 219 °C
C=CCCCn1ncc2c(N)c(C(=O)OCC=C)c(C)nc21	62 to 62.5 °C
COc1cc(N2CCCN(C[C@H](O)CO)CC2)ccc1Nc1ncc2ccc(-c3ccccc3N(C)S(C)(=O)=O)n2n1	93 to 99 °C
CCOC(=O)c1ccc(C(C(N)=O)C(CCc2ccccc2)c2ccccc2N2CCCCC2)cc1 (configuration not stated)	118 to 119 °C
CC(=O)OC1CSC(Oc2cccc(-c3cccc(Cl)n3)c2)C(OC(C)=O)C1OC(C)=O (configuration not stated)	186 to 189 °C
Cc1cc(C(N)=O)ccc1N=C1SC[C@H](CC(C)C)N1CC(C)C	130 to 131 °C
O=C(Nc1ccc(Cl)cc1)c1cccc(/C=C/c2ccccn2)c1	213 °C
CCCn1cc(Cc2ccc(C(=O)NS(=O)(=O)c3ccccc3C)cc2OC)c2cc(CCNC(=O)N(C)C)ccc21	115 to 121 °C
CN(c1ccc(Cl)cc1)c1nc(=O)c2ccncc2s1	255 to 256 °C
